Here are results for 1 compound from article PMC9724349, “Discovery of a pyrano[2,3-b]pyridine derivative YX-2102 as a cannabinoid receptor 2 agonist for alleviating lung fibrosis” (Journal of Translational Medicine, 2022).

This experiment deals with T1, cannabinoid receptor 2 (CB2R) (Homo sapiens, UniProt P34972).
T1 construct: gene CNR2
Description: radioligand binding assay, [3H]CP […] displacement.

T1 sequence (P34972 whole entry): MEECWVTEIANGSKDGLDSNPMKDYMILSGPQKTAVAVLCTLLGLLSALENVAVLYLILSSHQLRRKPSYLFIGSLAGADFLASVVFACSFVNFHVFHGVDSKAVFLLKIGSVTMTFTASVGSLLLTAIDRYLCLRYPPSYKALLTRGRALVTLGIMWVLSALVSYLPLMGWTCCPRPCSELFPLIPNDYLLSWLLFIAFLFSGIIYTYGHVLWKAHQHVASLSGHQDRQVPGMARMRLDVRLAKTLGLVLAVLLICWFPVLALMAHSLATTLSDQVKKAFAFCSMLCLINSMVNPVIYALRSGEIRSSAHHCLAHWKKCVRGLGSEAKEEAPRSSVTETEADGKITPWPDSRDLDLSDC

A word on the Ki: it is the dissociation constant of the complex between target and ligand, obtained from inhibition or displacement. Low readings indicate a stronger hold on the target, high ones a looser hold on the target. In the case of `CCOC(=O)C1=CC(c2cccc(C)c2)C2CCC(CC(=O)c3ccccc3)OC2N1S(=O)(=O)c1ccc(C)cc1` (stereo not shown) [YX-2102], the Ki is 350 nM.
